The supplement of paper PMC10307832

Columns and labels:
Test in all cases: relative viability (nuclei count vs DMSO), 5 days (fraction); higher = more cells survive
Doramapimod = compound: Cc1ccc(-n2nc(C(C)(C)C)cc2NC(=O)Nc2ccc(OCCN3CCOCC3)c3ccccc23)cc1 [Doramapimod]
Summary of the method: (§1)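 Five library-drug doses, separated by factors of √10, were pinned into 1536-well plates holding lung cancer cell lines after an overnight stay at 37 °C. Cells were fixed, permeabilised and Hoechst-stained in one step after 5 days without medium change, then imaged at 4×. Viability compares treated-well with vehicle-well nuclei, counted in MetaXpress, as a median across plates. Passing plates had control CV below 25% and at least one doubling.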

IPA-3 = compound: C1=CC=C2C(=C1)C=CC(=C2SSC3=C(C=CC4=CC=CC=C43)O)O [IPA-3]
Summary of the method: as §1

RAF265 = compound: Cn1c(Nc2ccc(C(F)(F)F)cc2)nc2cc(Oc3ccnc(-c4ncc(C(F)(F)F)[nH]4)c3)ccc21 [RAF265]
Summary of the method: as §1

IPA-3 + Foretinib = compound: C1=CC=C2C(=C1)C=CC(=C2SSC3=C(C=CC4=CC=CC=C43)O)O [IPA-3] + COc1cc2c(Oc3ccc(NC(=O)C4(C(=O)Nc5ccc(F)cc5)CC4)cc3F)ccnc2cc1OCCCN1CCOCC1 [Foretinib] (partner 0.25 µM)
Summary of the method: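 Nuclei were stained with Hoechst during a one-step fixation (final 0.05% Triton X-100, 1% formaldehyde, 1 ug/ml Hoechst) carried out 5 days after dosing, then counted on 4× images. The cells, lung cancer lines in 1536-well plates, had been dosed by pin tool the day after seeding with one drug alone or a fixed anchor-drug dose plus five library-drug doses (not always all listed) in √10 steps. Relative viability is the nuclei count in treated wells divided by that in vehicle wells, and each value is the median of duplicate plates.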

Cell Line	relative viability (Doramapimod; 0.02 µM)	relative viability (Doramapimod; 0.06325 µM)	relative viability (Doramapimod; 0.2 µM)	relative viability (Doramapimod; 0.6325 µM)	relative viability (Doramapimod; 2 µM)	relative viability (IPA-3; 0.2 µM)	relative viability (IPA-3; 0.6325 µM)	relative viability (IPA-3; 2 µM)	relative viability (IPA-3; 6.325 µM)	relative viability (IPA-3; 20 µM)	relative viability (RAF265; 0.01 µM)	relative viability (RAF265; 0.03162 µM)	relative viability (RAF265; 0.1 µM)	relative viability (RAF265; 0.3162 µM)	relative viability (RAF265; 1 µM)	relative viability (IPA-3 + Foretinib; first compound 0.2 µM)	relative viability (IPA-3 + Foretinib; first compound 0.6325 µM)	relative viability (IPA-3 + Foretinib; first compound 2 µM)	relative viability (IPA-3 + Foretinib; first compound 6.325 µM)	relative viability (IPA-3 + Foretinib; first compound 20 µM)
NCI-H522	0.946	0.978	0.79	0.925	0.86	1.05	0.889	0.978	1.07	1.08	1.15	1.1	0.941	0.812	0.961	–	–	–	–	–
NCI-H1944	0.891	0.994	0.935	1.19	0.878	1.05	0.897	0.953	1.11	0.955	1.06	1.13	0.972	0.755	0.667	1.05	0.856	0.879	0.938	0.928
NCI-H727	0.971	0.972	1.05	0.885	0.787	0.929	0.938	0.816	0.901	0.899	0.932	0.908	0.834	0.7	0.62	0.898	0.81	1.17	0.615	0.73
NCI-H1650	0.998	0.99	1.17	1.2	0.966	1.13	0.787	0.931	1.01	1	1.09	0.904	1.11	0.75	0.765	1.27	1.29	1.39	1.03	1.45
HCC-827	1.02	1.05	1.07	0.902	0.863	1.07	1.05	1.05	0.955	0.978	1.03	0.963	1.05	–	0.903	1.04	1.04	1.08	0.952	0.947
HCC-366	0.951	0.979	1	1.04	0.99	1.04	0.976	0.98	1.03	1.05	1.03	0.99	1.06	0.975	0.947	0.929	0.851	0.911	0.833	0.856
HARA	1.02	0.948	0.811	1.19	0.754	1.28	0.977	1.04	1.05	1.21	1.07	0.982	0.949	0.693	0.584	1.23	0.854	0.943	0.855	1.31
NCI-H322M	1.05	0.993	0.998	1.3	0.937	1.01	0.902	1.02	1.03	1	1.04	1	0.597	0.38	0.282	1.05	0.961	1.15	1.04	1.13
LXF-289	0.999	0.986	1.01	0.982	0.943	1.08	0.999	1.04	1.06	1.13	1.02	1.1	0.976	0.807	0.768	1	0.919	0.993	1.01	1.11
PC-3 [JPC-3]	1.15	1.11	1.1	1.13	0.904	1.09	1.07	1.01	0.96	1	1.07	1	1.12	0.488	0.743	1.06	0.975	1.04	0.965	1
CAL-12T	0.995	0.976	1.03	1.01	0.931	1.15	0.846	0.967	0.93	1.03	1.08	0.955	0.936	0.723	0.603	1.16	1.01	1.12	0.976	1.14
COR-L 105	0.861	0.93	0.935	1.1	0.993	1.2	0.882	0.901	0.984	0.827	1.08	1.05	0.954	0.463	0.563	1.24	1.11	0.744	1.02	1.15
NCI-H2347	1.05	0.973	1.01	0.964	0.959	1.21	0.962	1	1.01	1.1	1.16	0.975	0.984	0.822	0.528	1.24	0.916	0.908	0.902	0.899
NCI-H2126	1.02	1.02	0.973	1.03	0.967	1.07	0.974	0.976	0.995	1.11	1.04	0.949	0.951	0.855	0.72	1.21	1.23	0.904	1.17	1.18
NCI-H838	0.993	1.02	1.06	1.05	0.949	1.08	0.942	0.972	0.969	1.1	0.981	1	0.973	0.93	0.773	1.22	1	1.1	1.03	1.14
A549	0.956	0.976	0.951	0.999	0.878	1.18	0.962	1.01	1.05	1.16	1.01	0.926	0.967	0.667	0.412	0.988	0.927	1.01	0.884	1.21
